Data from the NIST ThermoML archive (doi:10.1021/je201334p).
Numbers after ± are expanded uncertainties.

Assays:
[1] = xn = mol fraction of the nth substance listed; settings: 101 kPa, Liquid; for speed of sound: Sing-around technique in a fixed-path interferometer; for mass density: Vibrating tube method
[2] = refractive index (Na D-line) (dimensionless); xn = mol fraction of the nth substance listed; settings: 101 kPa, Liquid, Standard Abbe refractometry

COS(=O)(=O)[O-].C[n+]1ccccc1 [1-methylpyridinium methylsulfate] + O
Settings	mass density, 288.15 K [kg/m3]	mass density, 298.15 K [kg/m3]	mass density, 308.15 K [kg/m3]	refractive index, 288.15 K	refractive index, 298.15 K	refractive index, 308.15 K	speed of sound, 288.15 K [m/s]	speed of sound, 298.15 K [m/s]	speed of sound, 308.15 K [m/s]
[1], x2 = 0	1352.86 ± 0.69	1346.12 ± 0.68	1339.37 ± 0.67	–	–	–	1901.1 ± 1.5	1875.8 ± 1.5	1852.4 ± 1.5
[1], x2 = 0.0574	1350.36 ± 0.64	1343.61 ± 0.63	1336.86 ± 0.62	–	–	–	1900.5 ± 1.5	1876 ± 1.5	1852.3 ± 1.5
[1], x2 = 0.073	1349.61 ± 0.62	1342.85 ± 0.61	1336.11 ± 0.61	–	–	–	1901.4 ± 1.5	1876.4 ± 1.5	1852.7 ± 1.5
[1], x2 = 0.1111	1347.74 ± 0.59	1340.98 ± 0.58	1334.23 ± 0.58	–	–	–	1901.9 ± 1.5	1877.4 ± 1.5	1853.7 ± 1.5
[1], x2 = 0.1927	1343.32 ± 0.53	1336.56 ± 0.52	1329.82 ± 0.51	–	–	–	1903.2 ± 1.4	1879.2 ± 1.4	1855.8 ± 1.4
[1], x2 = 0.2941	1336.61 ± 0.46	1329.85 ± 0.45	1323.12 ± 0.45	–	–	–	1906.5 ± 1.4	1882.6 ± 1.4	1859.2 ± 1.4
[1], x2 = 0.4005	1327.54 ± 0.39	1320.8 ± 0.39	1314.09 ± 0.38	–	–	–	1909.5 ± 1.3	1886.2 ± 1.3	1863.4 ± 1.3
[1], x2 = 0.4996	1316.5 ± 0.34	1309.79 ± 0.34	1303.09 ± 0.33	–	–	–	1912.2 ± 1.3	1889.5 ± 1.3	1867 ± 1.3
[1], x2 = 0.6077	1299.41 ± 0.29	1292.74 ± 0.29	1286.07 ± 0.28	–	–	–	1913.2 ± 1.3	1891 ± 1.3	1868.9 ± 1.2
[1], x2 = 0.7064	1276.09 ± 0.25	1269.51 ± 0.25	1262.91 ± 0.25	–	–	–	1906.8 ± 1.2	1885.4 ± 1.2	1863.4 ± 1.2
[1], x2 = 0.8058	1237.51 ± 0.22	1231.17 ± 0.22	1224.76 ± 0.22	–	–	–	1878 ± 1.2	1859.2 ± 1.2	1837.7 ± 1.2
[1], x2 = 0.901	1168.89 ± 0.16	1163.31 ± 0.16	1157.51 ± 0.17	–	–	–	1782.3 ± 1.1	1772.7 ± 1.1	1760.4 ± 1.2
[1], x2 = 0.9497	1107.24 ± 0.12	1102.67 ± 0.12	1097.68 ± 0.12	–	–	–	1670.4 ± 1.1	1673.5 ± 1.1	1673.4 ± 1.1
[1], x2 = 0.9645	1081.91 ± 0.12	1077.85 ± 0.12	1073.27 ± 0.12	–	–	–	1622.5 ± 1	1633.3 ± 1	1637.2 ± 1
[2], x2 = 0	–	–	–	1.51603 ± 0.00052	1.5134 ± 0.00052	1.51077 ± 0.00052	–	–	–
[2], x2 = 0.0574	–	–	–	1.51462 ± 0.00051	1.51199 ± 0.00051	1.50937 ± 0.00052	–	–	–
[2], x2 = 0.073	–	–	–	1.51423 ± 0.00051	1.51159 ± 0.00051	1.50895 ± 0.00051	–	–	–
[2], x2 = 0.1111	–	–	–	1.51315 ± 0.00051	1.51052 ± 0.00051	1.50794 ± 0.00051	–	–	–
[2], x2 = 0.1927	–	–	–	1.51059 ± 0.00049	1.50803 ± 0.0005	1.50539 ± 0.00052	–	–	–
[2], x2 = 0.2941	–	–	–	1.50679 ± 0.00048	1.50426 ± 0.0005	1.5017 ± 0.00052	–	–	–
[2], x2 = 0.4005	–	–	–	1.50177 ± 0.00047	1.49921 ± 0.00049	1.49665 ± 0.00052	–	–	–
[2], x2 = 0.4996	–	–	–	1.49567 ± 0.00045	1.49314 ± 0.00049	1.49057 ± 0.00054	–	–	–
[2], x2 = 0.6077	–	–	–	1.48632 ± 0.00043	1.48384 ± 0.00048	1.48134 ± 0.00057	–	–	–
[2], x2 = 0.7064	–	–	–	1.47388 ± 0.00041	1.47142 ± 0.00048	1.46886 ± 0.00065	–	–	–
[2], x2 = 0.8058	–	–	–	1.45378 ± 0.0005	1.45141 ± 0.00047	1.44897 ± 0.00087	–	–	–
[2], x2 = 0.901	–	–	–	1.41884 ± 0.00053	1.4167 ± 0.00046	1.41447 ± 0.00087	–	–	–
[2], x2 = 0.9497	–	–	–	1.38778 ± 0.0004	1.38593 ± 0.00045	1.38397 ± 0.00053	–	–	–
[2], x2 = 0.9645	–	–	–	1.37506 ± 0.0004	1.37336 ± 0.00044	1.37158 ± 0.00055	–	–	–
